Source: patent publication US20240294543A1, “CYCLOHEPTA-THIENO-DIAZEPINE DERIVATIVES AS GABA A GAMMA1 PAM” (Hoffmann-La Roche Inc., priority 2021, published 2024)
Where two headings read alike, the source gives them in different places.

Tests used:
[1] = target: human GABAA α2β2γ1 receptor (Homo sapiens (Human), UniProt P47869+Q8N1C3); test: Radioligand binding assay, competition for [3H]RO7239181, γ1-containing GABAA subtypes
Method: The affinity of compounds at GABAA γ1 subunit-containing receptors was measured by competition for [^3H]RO7239181 (67.3 Ci/mmol; Roche) binding to membranes from HEK293F cells (ThermoFisher R79007) expressing human (transiently transfected) receptors of composition α5β2γ1, α2β2γ1, α1β2γ1.
Harvested pellets from HEK293F cells expressing the different GABAA receptor subtypes were resuspended in Mannitol Buffer pH 7.2-7.4 (Mannitol 0.29 M, Triethylamine 10 mM, Acetic acid 10 mM, EDTA 1 mM plus protease inhibitors (20 tablets Complete, Roche Diagnostics Cat. No. 05 056 489 001 per liter)), washed two times and then resuspended at 1:10 to 1:15 dilution in the same buffer. Cell disruption was performed by stirring the suspension in a Parr vessel #4637 at 435 psi for 15 minutes, and then the suspensions were centrifuged at 1000×g for 15 minutes at 4° C. (Beckman Avanti J-HC; rotor JS-4.2). The supernatant (S1) was transferred in a 21 Schott flask and the pellet (P1) was resuspended with Mannitol Buffer up to 175 ml. The resuspended pellet was transferred into a 250 ml Corning centrifugal beaker and centrifuged at 1500×g for 10 minutes at 4° C. (Beckman Avanti J-HC; rotor JS-4.2). The supernatant (S1) was then transferred in the 21 Schott flask and the pellet was discarded. The supernatants (S1) were centrifuged in 500 ml Beckman polypropylene centrifugal beaker at 15'000×g for 30 minutes at 4° C. (Beckman Avanti J-20 XP; rotor JLA-10.500). The pellet (P2) was resuspended with Mannitol Buffer 1:1 and frozen at −80° C. The supernatant (S2) was centrifuged in 100 ml Beckman polypropylene centrifugal tubes at 48000×g for 50 minutes at 4° C. (Beckman Avanti J-20 XP; rotor JA-18). The supernatant (S3) was discarded and the pellet (P3) was resuspended with 1:1 Mannitol Buffer. The P2 and P3 protein concentration was determined with the BIORAD Standard assay method with bovine serum albumin as standard and measured on the NANO-Drop 1000. The membrane suspension was aliquots (500 μl per tube) and stored at −80° C. until required.
Membrane homogenates were resuspended and polytronised (Polytron PT1200E Kinematica AG) in Potassium Phosphate 10 mM, KCl 100 mM binding buffer at pH 7.4 to a final assay concentration determined with a previous experiment.
Assays were incubated to equilibrium for 1 hour at 4° C. and then, membranes were filtered onto unifilter (96-well white microplate with bonded GF/C filters preincubated 20-50 minutes in 0.3% Polyethylenimine) with a Filtermate 196 harvester (Packard BioScience) and washed 4 times with cold Potassium Phosphate 10 mM pH 7.4, KCl 100 mM binding buffer. After anhydrousing, filter-retained radioactivity was detected by liquid scintillation counting. Ki values were calculated using Excel-Fit (Microsoft) and are the means of two determinations.

[2] = target: human GABAA α1β3γ2 receptor (Homo sapiens (Human), UniProt P14867+P18507); test: Radioligand binding assay, competition for [3H]Flumazenil, γ2-containing GABAA subtypes; details: for γ2/γ1 Selectivity Ratio: Ki α1β3γ2 (nM)/Ki α2β2γ1 (nM); for LogSel: Log[Ki α1β3γ2 (nM)/Ki α2β2γ1 (nM)]
Method: The affinity of compounds at GABAA γ2 subunit-containing receptors was measured by competition for [^3H]Flumazenil (81.1 Ci/mmol; Roche) binding to HEK293F cells expressing human (transiently transfected) receptors of composition α1β3γ2.
Harvested pellets from HEK293F cells expressing the different GABAA γ2 receptor subtypes were resuspended in Mannitol Buffer pH 7,2-7,4 and processed as described above for the cells expressing the GABAA γ1 subunit-containing receptors.
Assays were incubated to equilibrium for 1 hour at 4° C. and harvested onto GF/C uni-filters (Packard) by filtration using a Packard harvester and washing with ice-cold wash buffer (50 mM Tris; pH 7.5). After anhydrousing, filter-retained radioactivity was detected by liquid scintillation counting. Ki values were calculated using Excel-Fit (Microsoft) and are the means of two determinations.

h-GABA-A α2β2γ1 = h-GABA-A α2β2γ1 (Homo sapiens (Human), UniProt P47869+Q8N1C3); test: Two-electrode voltage clamp electrophysiology in Xenopus oocytes expressing GABAA receptors; assay type: cell-based; details: for Efficacy (GABA) %: % modulation of GABA EC20 = 100*(Fold increase−1), compound at about 30-fold its Ki α2β2γ1; for Fold increase h-GABA-A α2β2γ1 oocyte @ 30-fold Ki: Xenopus oocytes, GABA EC20, compound at about 30-fold its Ki α2β2γ1
Method: Xenopus Oocytes Preparation Xenopus laevis oocytes at maturation stages V-VI were used for the expression of cloned mRNA encoding GABAA receptor subunits. Oocytes ready for RNA micro-injection were bought from Ecocyte, Castrop-Rauxel, Germany and stored in modified Barth's medium (composition in mM: NaCl 88, KCl 1, NaHCO3 2.4, HEPES 10, MgSO4 0.82, CaNO3 0.33, CaCl2 0.33, pH=7.5) at 20° C. until the experiment.
Oocytes were plated in 96-well plates for microinjection using the Roboinject automated instrument (MultiChannelSystems, Reutlingen, Germany). Approximately 50 nL of an aqueous solution containing the RNA transcripts for the subunits of the desired GABAA receptor subtype was injected into each oocyte. […] Oocytes were kept in modified Barth's medium (composition in mM: NaCl 88, KCl 1, NaHCO3 […], HEPES 10, MgSO4 0.82, CaNO3 0.33, CaCl2 0.33, pH=7.5) at 20° C. until the experiment.
Electrophysiological experiments were performed using the Roboocyte instrument (MultiChannelSystems, Reutlingen, Germany) on days 3 to 5 after the micro-injection of mRNA. During the experiment the oocytes were constantly superfused by a solution containing (in mM) NaCl 90, KCl 1, HEPES 5, MgCl2 1, CaCl2 1 (pH 7.4). Oocytes were impaled by two glass microelectrodes (resistance: 0.5-0.8 MQ) which were filled with a solution containing KCl 1M+K-acetate 1.5 M and voltage-clamped to −80 mV. The recordings were performed at room temperature using the Roboocyte two-electrode voltage clamp system (Multichannelsystem). After an initial equilibration period of 1.5 min GABA was added for 1.5 min at a concentration evoking approximately 20% of a maximal current response (EC20). After another rest interval of 2.5 min GABA was again added evoking a response of similar amplitude and shape. […] Current traces were recorded at a digitization rate of 10 Hz during and shortly before and after the GABA application.
Each compound and concentration was tested on at least 3 oocytes. Different oocytes were used for different compound concentrations.
For the analysis, the digitized current traces of the first and second GABA response were superimposed and, if necessary, rescaled to equal maximal amplitudes. The ratio between the two responses during the time interval of test compound application was calculated point by point. The extremum of the resulting “ratio trace” was taken as the efficacy (“Fold increase”) of the compound expressed as “% modulation of GABA EC20” (100*(Fold increase−1)).

[3] = Ki h-GABAA α2β2γ1, membranes of HEK293F cells, [3H]RO7239181 20-30 nM, Table 1
[4] = Ki h-GABAA α2β2γ1, membranes of HEK293F cells, [3H]RO7239181 20-30 nM, Table 2

SMILES	Ki [1, 3] [µM]	Ki [1, 4] [µM]	Ki [2] [µM]	γ2/γ1 Selectivity Ratio ([2]; Table 1)	LogSel ([2]; Table 1)	Efficacy (GABA) % (h-GABA-A α2β2γ1) [%]	Fold increase h-GABA-A α2β2γ1 oocyte @ 30-fold Ki (h-GABA-A α2β2γ1)	Ki ([1]; Ki h-GABAA α2β2γ1, Table 3, reference compounds and examples) [µM]	γ2/γ1 Selectivity Ratio ([2]; Table 3)	LogSel ([2]; Table 3)	Ki ([2]; read-out: Ki h-GABAA α1β3γ2, Table 3, reference compounds and examples) [µM]
Cc1nnc2n1-c1sc3c(c1C(c1c(F)cccc1F)=N[C@H]2C)CCCCC3O (mixture of isomers) [Example 9, (7S,16RS)-9-(2,6-difluorophenyl)-3,7-dimethyl-18-thia-2,4,5,8-tetrazatetracyclo[8.8.0.02,6.011,17]octadeca-1(10),3,5,8,11(17)-pentaen-16-ol]	0.0143	0.0143	1.13	79.4	1.90	96	1.96				
Cc1nnc2n1-c1sc3c(c1C(c1c(F)cccc1F)=N[C@H]2C)CCCC(O)C3 (mixture of isomers) [Example 13, (7S,15RS)-9-(2,6-difluorophenyl)-3,7-dimethyl-18-thia-2,4,5,8-tetrazatetracyclo[8.8.0.02,6.011,17]octadeca-1(10),3,5,8,11(17)-pentaen-15-ol]	0.0151	0.0151	1.19	78.9	1.90	80	1.80				
Cc1nnc2n1-c1sc3c(c1C(c1c(F)cccc1F)=N[C@H]2C)CCCC[C@H]3F (single isomer, unassigned) [Example 11]	0.0174	0.0175	0.825	47.3	1.67	88	1.88				
Cc1nnc2n1-c1sc3c(c1C(c1c(F)cccc1F)=N[C@H]2C)CCCC[C@@H]3F (single isomer, unassigned) [Example 12]	0.0337	0.0337	1.01	29.9	1.48	185	2.85				
Cc1nnc2n1-c1sc3c(c1C(c1c(F)cccc1F)=N[C@H]2C)CC[C@H](F)CC3 (single isomer, unassigned) [Example 14]	0.0384	0.0384	11	286.6	2.46	181	2.81				
Cc1nnc2n1-c1sc3c(c1C(c1c(F)cccc1F)=N[C@H]2C)CC[C@@H](F)CC3 (single isomer, unassigned) [Example 15]	0.0428	0.0428	3.53	82.5	1.92	144	2.44				
Cc1nnc2n1-c1sc3c(c1C(c1c(F)cccc1F)=N[C@H]2C)CCC[C@H](F)C3 (single isomer, unassigned) [Example 17]	0.00431	0.0043	0.584	135.6	2.13	135	2.35				
Cc1nnc2n1-c1sc3c(c1C(c1c(F)cccc1F)=N[C@H]2C)CCC(F)C(F)C3 (single isomer, unassigned) [Example 34]	0.0317	0.0317	10.8	340.3	2.53	134	2.34				
Cc1nnc2n1-c1sc3c(c1C(c1c(F)cccc1F)=NC2)CCCCC3 [Example 1, 9-(2,6-difluorophenyl)-3-methyl-18-thia-2,4,5,8-tetrazatetracyclo[8.8.0.02,6.011,17]octadeca-1(10),3,5,8,11(17)-pentaene]	0.0075	0.0075	0.374	49.6	1.70	64	1.64	0.0075	49.6	1.7	0.374
Cc1nnc2n1-c1sc3c(c1C(c1c(F)cccc1F)=N[C@H]2C)CCCCC3 [Example 2, (7S)-9-(2,6-difluorophenyl)-3,7-dimethyl-18-thia-2,4,5,8-tetrazatetracyclo[8.8.0.02,6.011,17]octadeca-1(10),3,5,8,11(17)-pentaene]	0.0074	0.0074	0.994	133.9	2.13	66	1.66				
C[C@@H]1N=C(c2c(F)cccc2F)c2c(sc3c2CCCCC3)-n2c(C3CC3)nnc21 [Example 3, (7S)-3-cyclopropyl-9-(2,6-difluorophenyl)-7-methyl-18-thia-2,4,5,8-tetrazatetracyclo[8.8.0.02,6.011,17]octadeca-1(10),3,5,8,11(17)-pentaene]	0.0266	0.0267	1.36	51.0	1.71	91	1.91				
